From ChEMBL document CHEMBL3507680, “University of Dundee, Gates Library screen for HepG2 cell viability” come the findings set out here.

A short description of the data set: Human HepG2 cell viability assay in 384 well format. The arrangement: dose 125 nL, time 70.5 hour; cytotoxicity at 70.5 h: concentration not given beside the values. It is filed as toxicity, cell-based. The conditions noted are these: HepG2 cells, read-out: Inhibition.

As for `CNC(=O)CS(=O)(=O)C1CCN(S(=O)(=O)c2cccc(C(C)=O)c2)CC1`, the cytotoxicity at 70.5 h is -6.78%.
As for `Cc1csc(C(=O)N2CC(S(=O)(=O)C3CCCCC3)C2)c1`, the cytotoxicity at 70.5 h is -6.45%.
As for `O=C(c1cnccn1)N1CC(S(=O)(=O)c2ccc(Cl)cc2)C1`, the cytotoxicity at 70.5 h was -4.33%.
As for `Cc1cc(S(=O)(=O)N2CCC(N3CCC(O)C3)CC2)c(Cl)cc1Cl` (stereo not drawn), the figure is -4.51%; as for `O=C(Cc1cccs1)Nc1cnn(C2CCOC2)c1` (stereo not drawn), 40.6%.
Take `N#Cc1ccc(S(=O)(=O)Nc2cnn(C3CCOCC3)c2)cc1`: the cytotoxicity at 70.5 h was -1.54%.
Turning to `O=C(O)c1cc(S(=O)(=O)Nc2cnn(C3CCOCC3)c2)ccc1F`, the cytotoxicity at 70.5 h was -6.44%.
For `COC(CNC(=O)C1CC1)c1ccc(C)s1` (stereo not drawn), the cytotoxicity at 70.5 h was determined as 19.1%.
In the case of `COC(CNC(=O)C1CCN(S(C)(=O)=O)CC1)c1ccc(C)s1` (stereo not drawn), the cytotoxicity at 70.5 h is -12%.
In the case of `COC(C)(CNS(=O)(=O)c1cccnc1)c1ccccc1F` (stereo not drawn), the cytotoxicity at 70.5 h was -18.1%.
As for `COC(C)(CNS(=O)(=O)c1cnn(C)c1)c1ccccc1F` (stereo not drawn), the figure is -0.155%; as for `CCC(CNC(=O)C1CC1)(OC)c1ccccc1` (stereo not drawn), 8.11%; as for `CCOCC(=O)NCC(CC)(OC)c1ccccc1` (stereo not drawn), -12.4%.
For the molecule `O=C(NCc1cccs1)C1CCCN(c2cc(-n3cncn3)ncn2)C1` (stereo not drawn), the cytotoxicity at 70.5 h was -3.14%.
Consider `O=C(C1CC1)N1CCN(c2ccc(-n3cncn3)nn2)CC1`, for which the cytotoxicity at 70.5 h is -3.85%.
With `Cc1ccccc1C(=O)N1CCN(c2ccc(-n3cncn3)nn2)CC1`, the cytotoxicity at 70.5 h was -4.18%.
As for `Nc1cccnc1N1CCC(C(F)(F)F)CC1`, the figure is 14.9%.
On to `Cc1cncc(Oc2ccc(CN)cc2)n1`, for which the cytotoxicity at 70.5 h was -10.6%.
`Cc1cncc(Oc2ccc(CO)cc2)n1`: the cytotoxicity at 70.5 h was -5.95%.
For `O=C(CC1CC1)N1CCC2(CC1)C(=O)NCCN2Cc1ccccc1`, the cytotoxicity at 70.5 h came to 10.6%.
Consider `CCN1C(=O)C[C@@H]2[C@@H]1CCN2S(=O)(=O)c1ccc(OC)cc1`, for which the cytotoxicity at 70.5 h worked out at 9.29%.
`Cc1ccccc1CNC(=O)N1CC[C@@H]2CN(C)S(=O)(=O)[C@@H]2CC1`: the cytotoxicity at 70.5 h was determined as 17.8%.
As to `Cc1cc(C(=O)N[C@H]2CC[C@@]3(CCC(=O)N3CC3CC3)CC2)no1`, the cytotoxicity at 70.5 h is -15.5%.
As for `O=C1CCC2(CCN(S(=O)(=O)c3ccccc3)CC2)N1CC1CC1`, the figure is -12.5%; as for `CCN1C(=O)CCC12CCCN(S(=O)(=O)c1cccc(C)c1)CC2` (stereo not drawn), -2.78%.
In the case of `CCCS(=O)(=O)N1CCC2(CCCC(=O)N2C)CC1`, the cytotoxicity at 70.5 h is -9.65%.
For `O=C(C1CCOCC1)N1CCC2(CCC(C(=O)N3CCCC3)O2)CC1` (stereo not drawn), the cytotoxicity at 70.5 h is -6.14%.
The same measure for `CCS(=O)(=O)N1CCCC2(CCCC(=O)N2C)C1` (stereo not drawn): -9.96%; for `CC(=O)N1CC2(CCN(C(=O)c3ccc4c(c3)OCCO4)CC2)C1`: 20.2%; for `O=C(CC(F)(F)F)N1C[C@H]2CN(CC3CC3)C(=O)[C@H]2C1`: -5.1%.
Turning to `CC(=O)N1CCOCC2(CCCNC2)C1` (stereo not drawn), the cytotoxicity at 70.5 h was -9.88%.
For `O=C(C[C@@H]1COC[C@H]2CN(Cc3ccsc3)C[C@@H]12)N1CCCC1`, the cytotoxicity at 70.5 h is -3.89%.
In the case of `CC(=O)N1CCC2(CC1)CN(C(=O)C1CC1)c1ccc(F)cc12`, the cytotoxicity at 70.5 h is -0.352%.
On to `CN(C)C(=O)NC1COC2(CCN(C(=O)c3ccc(Cl)cc3)CC2)C1` (stereo not drawn), for which the cytotoxicity at 70.5 h was -8.31%.
The same measure for `CC(=O)N1C[C@H]2CN(CC3CC3)C(=O)[C@H]2C1`: -0.948%.
In the case of `COCCN1C[C@@H]2CN(C(=O)CC3CC3)C[C@@H]2C1=O`, the cytotoxicity at 70.5 h was -6.26%.
On to `COCCn1c2c(ccc1=O)CC(N)CC2` (stereo not drawn), for which the cytotoxicity at 70.5 h was -0.36%.
Take `CC(C)Cn1c2c(ccc1=O)CC(N)CC2` (stereo not drawn): the cytotoxicity at 70.5 h was -3.16%.
Regarding `O=C([C@H]1CCCO1)N1Cc2nccn2CC(COc2cccnc2)C1` (stereo partly drawn), the cytotoxicity at 70.5 h is -4.93%.
Regarding `Cn1cc(C2CC(=O)NC23CCN(C(=O)C2CC=CC2)CC3)cn1` (stereo not drawn), the cytotoxicity at 70.5 h was 18.7%.
In the case of `C1CC(CN2C[C@@H]3C[C@@H](c4nnc(C5CC5)o4)O[C@@H]3C2)C1`, the cytotoxicity at 70.5 h amounted to 27.7%.
As to `CCC(=O)N1CCC2(CC1)CC(NC(=O)N(C)C)c1cc(C)ccc12` (stereo not drawn), the cytotoxicity at 70.5 h was -5.76%.
Consider `O=C(c1cccc(F)c1)N1CCc2ncc(Cn3cccn3)n2CC1`, for which the cytotoxicity at 70.5 h is -11%.
As for `O=C(NCCN1CCCC1)c1cc2c(s1)CCN2C(=O)c1ccccc1`, the cytotoxicity at 70.5 h is -8.31%.
For `O=C(NCC1CC1)c1cc2c(s1)CCN2C(=O)c1ccc(F)cc1`, the cytotoxicity at 70.5 h is -9.03%.
With `CCO[C@@H]1CC[C@H]2[C@H]1OCCN2S(=O)(=O)C1CC1`, the cytotoxicity at 70.5 h is -11.4%.
Regarding `CN1CCN(C(=O)c2cccn2C)Cc2cccnc21`, the cytotoxicity at 70.5 h was -4.65%.
Turning to `O=C(NCC1CC1)[C@@H]1C[C@@H]2CCN(Cc3ccccc3)C[C@H]2O1`, the cytotoxicity at 70.5 h was -6.35%.
In the case of `COCCN1Cc2ccccc2C2(CCN(C(=O)c3ccno3)CC2)C1`, the cytotoxicity at 70.5 h is 2.49%.
As for `O=C([C@H]1CCCO1)N1CCN(Cc2cccnc2)c2ncccc2C1`, the figure is 0.581%; as for `Cc1ccc(N2CCCc3sc(C(=O)NCC4CCCO4)nc32)nn1` (stereo not drawn), -8.45%; as for `Cc1ccc2c(n1)N(Cc1cccnc1)CCN(C(=O)C1CC=CC1)C2`, -9.79%.
Consider `O=C(N1CCOCC1)N1CCC2(CCNC2)C1` (stereo not drawn), for which the cytotoxicity at 70.5 h was -3.15%.
As for `CS(=O)(=O)NCc1cncc2c1CCN(C(=O)N1CCCC1)C2`, the cytotoxicity at 70.5 h is 11.1%.
With `CC(C)CN1CCc2c(CN(C)Cc3ccco3)cncc2C1`, the cytotoxicity at 70.5 h came out at 4.58%.
Regarding `CN(C)C[C@@H]1CCC[C@@H]2CN(c3nccc(C(F)(F)F)n3)C[C@@H]21`, the cytotoxicity at 70.5 h came out at 23.3%.
As for `CCN1CCC2(CN(C(=O)N(C)C)CC23CCN(CC2CC2)CC3)C1=O` (stereo not drawn), the cytotoxicity at 70.5 h worked out at 18.4%.
Turning to `CCN1CCC2(CN(C(C)=O)CC23CCN(CC2CC2)CC3)C1=O` (stereo not drawn), the cytotoxicity at 70.5 h is -5.77%.
Consider `Cc1cnc(N2CCC3(CCCCN3C)C2)nc1` (stereo not drawn), for which the cytotoxicity at 70.5 h is -7.87%.
As for `CN(C)C(=O)CN1CC[C@H]2CN(C3CCOCC3)C[C@@H]2C1=O`, the cytotoxicity at 70.5 h was -4.31%.
The same measure for `CC(=O)N1CCC2(CC1)CN(CC(C)C)CC21CCNC1=O` (stereo not drawn): 13.6%; for `Cc1ccc(CN2CCC[C@@H]3CN(C(=O)c4ccco4)C[C@@H]32)o1`: -9.58%; for `O=C1CC[C@]2(CC[C@@H](NC3CCOCC3)CC2)N1Cc1ccccc1`: -2.63%.
As for `COCCN1CCC2(CC1)CN(C(=O)C1CC1)c1ccc(F)cc12`, the figure is -3.73%; as for `CN(C)C1COC2(CCN(C(=O)c3cccc(Cl)c3)CC2)C1` (stereo not drawn), -9.63%.
With `O=C(C[C@H]1[C@H]2CN(Cc3ccc(F)cc3)C[C@@H]12)N1CCCC1`, the cytotoxicity at 70.5 h was -3.22%.
As for `COc1ccc(CN2C[C@@H]3[C@H](CC(=O)N4CCCC4)[C@@H]3C2)cc1`, the cytotoxicity at 70.5 h was -9.32%.
As for `CNC(=O)CN1CC[C@H]2CN(C(=O)c3ccc(C)nc3)C[C@H]2C1`, the figure is -1.44%; as for `CC(C)CCN1CCc2[nH]nc(C(=O)N3CCCC3C)c2C1` (stereo not drawn), -6.21%.
`O=C(NC1CC1)N1CCCC2(CCCCN2)C1` (stereo not drawn): the cytotoxicity at 70.5 h is -5.05%.
As to `O=C(c1ccco1)N1C[C@@H]2OCCN(c3ncccn3)[C@@H]2C1`, the cytotoxicity at 70.5 h was -13.6%.
In the case of `O=C(c1ccc(O)cc1)N1C[C@@H]2OCCN(c3ncccn3)[C@@H]2C1`, the cytotoxicity at 70.5 h was -10.7%.
As for `CN(C)C(=O)N1CCC[C@]2(C(=O)N(C)C)CN(c3ccccn3)C[C@@H]2C1`, the figure is -10.5%.
Consider `Cn1cc(N2C(=O)CC[C@@H]3[C@H]2CCN3Cc2nccs2)cn1`, for which the cytotoxicity at 70.5 h was -11.9%.
With `CN1CC(=O)N(c2ccccc2)CC12CCN(C(=O)c1ccnnc1)C2` (stereo not drawn), the cytotoxicity at 70.5 h amounted to 24.2%.
With `Cc1ccc2c(c1)C(NC(=O)N(C)C)CC21CCN(C)CC1` (stereo not drawn), the cytotoxicity at 70.5 h was -3.53%.
As for `Cc1ccc2c(c1)C(NC(=O)N(C)C)CC21CCN(CC2CC2)CC1` (stereo not drawn), the cytotoxicity at 70.5 h was -9.46%.
The same measure for `O=C(NCC1CCOCC1)[C@H]1C[C@@H]2CCN(Cc3ccccc3)C[C@H]2O1`: -7.17%; for `Cn1cc(C2CC(=O)NC23CCN(Cc2cccc(F)c2)CC3)cn1` (stereo not drawn): -0.799%; for `O=C(c1ccccn1)N1CCc2ncc(Cn3cccn3)n2CC1`: -7.08%.
`CC(=O)N1CCO[C@H]2[C@H](OCCCn3cccn3)CC[C@@H]21`: the cytotoxicity at 70.5 h is -3.12%.
As to `c1cc(CN2CCC3(CC2)CC(N2CCCC2)CO3)co1` (stereo not drawn), the cytotoxicity at 70.5 h was -5.63%.
Regarding `CN(C)C(=O)[C@]12CCCN(CC3CC3)C[C@H]1CN(c1ccccn1)C2`, the cytotoxicity at 70.5 h was -8.29%.
`COCC1c2c(cnn2CC2CC2)CCN1Cc1cc(C)on1` (stereo not drawn): the cytotoxicity at 70.5 h is -12.7%.
As for `c1cc(CN2CCO[C@H]3[C@H](OCCN4CCCC4)CC[C@@H]32)co1`, the figure is -14.8%; as for `CC(C)N1CC[C@@H]2OC[C@H](C(=O)Nc3cccnc3)C[C@@H]2C1`, 25.1%.
Regarding `Cn1cccc1C(=O)N1CCN(Cc2cccnc2)c2ncccc2C1`, the cytotoxicity at 70.5 h was -8.24%.
The same measure for `c1cnn(CCCO[C@@H]2CC[C@H]3[C@H]2OCCN3CC2CCOCC2)c1`: -5.34%; for `O=C(N1CCCO1)[C@@]12CCO[C@@H]1CCN(Cc1ccccn1)C2`: 2.18%; for `O=C(c1ccnnc1)N1CCN(Cc2cccnc2)c2ncccc2C1`: -8.62%.
As for `CN(Cc1ccncc1)C1COC2(CCN(Cc3cccs3)CC2)C1` (stereo not drawn), the cytotoxicity at 70.5 h is -12.7%.
Regarding `Cc1nc(CN2CCC3(CCCN(Cc4cccnc4)C3)C2=O)cs1` (stereo not drawn), the cytotoxicity at 70.5 h was found to be 26.7%.
As for `CN(Cc1cccnc1)[C@@H]1CN(Cc2cnn(C)c2)[C@@H]2CCCO[C@H]12`, the figure is -6.78%.
